Reference: article PMC6337391 (Molecules, 2019)
Where two headings read alike, the source gives them in different places.

Assays:
[1] = target: T1, soybean lipoxygenase (Glycine max, UniProt P08170); test: biochemical; type: biochemical; settings: soybean LOX; for IC50: read-out: LOX IC50
T1 sequence (P08170 1-839): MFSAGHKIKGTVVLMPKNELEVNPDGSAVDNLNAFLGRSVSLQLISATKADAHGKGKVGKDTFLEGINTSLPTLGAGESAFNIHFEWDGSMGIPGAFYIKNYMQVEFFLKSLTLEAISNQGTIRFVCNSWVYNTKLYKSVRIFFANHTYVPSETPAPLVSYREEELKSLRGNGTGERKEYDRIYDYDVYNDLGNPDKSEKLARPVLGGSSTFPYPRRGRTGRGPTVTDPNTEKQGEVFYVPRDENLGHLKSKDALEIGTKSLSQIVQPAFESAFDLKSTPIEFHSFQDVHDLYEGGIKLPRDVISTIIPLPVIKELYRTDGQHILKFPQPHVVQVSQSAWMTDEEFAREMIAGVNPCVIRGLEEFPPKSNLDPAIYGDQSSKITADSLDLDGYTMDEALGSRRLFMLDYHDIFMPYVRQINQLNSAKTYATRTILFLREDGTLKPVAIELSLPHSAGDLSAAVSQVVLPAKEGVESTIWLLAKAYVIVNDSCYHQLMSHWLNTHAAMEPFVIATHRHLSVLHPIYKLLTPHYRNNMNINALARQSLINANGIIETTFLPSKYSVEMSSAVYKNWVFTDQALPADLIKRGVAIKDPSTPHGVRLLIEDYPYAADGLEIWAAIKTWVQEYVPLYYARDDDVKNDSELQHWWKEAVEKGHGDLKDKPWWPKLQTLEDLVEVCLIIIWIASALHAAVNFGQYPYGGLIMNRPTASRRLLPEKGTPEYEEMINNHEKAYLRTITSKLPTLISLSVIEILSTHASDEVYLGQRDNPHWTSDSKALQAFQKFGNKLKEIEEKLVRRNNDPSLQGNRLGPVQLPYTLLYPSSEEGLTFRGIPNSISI
Summary of the method: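 Soybean LOX (enzyme solution 1/9 × 10^−4 w/v in saline) incubated at room temperature with sodium linoleate ([…]) in tris buffer pH 9. Compounds added from DMSO stocks. IC50 derived from several concentrations.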

[2] = In vitro lipid peroxidation of liposomes
[3] = Reducing activity with the stable radical DPPH
Summary of the method: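 DPPH (final 0.05 mM) in absolute ethanol mixed with an equal volume of compound at 0.05 or 0.1 mM, ethanol as control. Absorbance at 517 nm read at room temperature after 20 and 60 min, expressed as reducing activity RA%.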

[4] = Inhibition of linoleic acid lipid peroxidation (AAPH)
Summary of the method: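 Sodium linoleate oxidation was initiated by AAPH in 0.05 M phosphate buffer, pH 7.4, at 37 °C, with test compound present and DMSO as blank. Conjugated diene hydroperoxide formation was followed as the absorbance increase at 234 nm.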

[5] = Lipophilicity as RM values by RP-TLC; type: physicochemical; parameters: key: RM = log[(1/Rf) − 1]; settings: methanol/water 70/30, SD < 10%
Summary of the method: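 Reversed-phase TLC on silica gel plates impregnated with 5% (v/v) liquid paraffin, methanol/water 70/30 (v/v) mobile phase, saturated tanks at 24 °C, UV detection. RM = log[(1/Rf) − 1] from five Rf measurements.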

[6] = ABTS•+ decolorization assay
Summary of the method: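 Compounds (10 mM DMSO stocks, diluted) added to ABTS•+ radical generated by potassium persulfate oxidation of ABTS. Decolorization followed as absorbance at room temperature, with Trolox as standard.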

[7] = target: acetyl-cholinesterase (AChE) (Electrophorus electricus, UniProt O42275); settings: cited from earlier work
[8] = parameters: method as in PMID 25798685; settings: cited from earlier work
[9] = system: L929 mouse fibroblasts cells; parameters: method as in PMID 25798685; settings: 24-h incubation, cited from earlier work
[10] = parameters: method as in PMID 25798685; settings: DPPH, cited from earlier work
[11] = parameters: method as in PMID 25798685; settings: RP-TLC, methanol/water 70/30, SD < 10%; cited from earlier work
[12] = target: T1, soybean lipoxygenase; parameters: method as in PMID 25798685; settings: cited from earlier work
[13] = system: L929 mouse fibroblasts cells; test: Cytotoxicity, propidium iodide fluorescence method; type: cell-based; settings: 24-h incubation
Summary of the method: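 L929 cells in EMEM with 10% horse serum were allowed to attach for 24 h, then exposed to 1, 10, 20, 50 and 100 μM compound for 24 h at 37 °C. Cells were detached, stained with propidium iodide, and cell death was measured by flow cytometry.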

acetyl-cholinesterase (AChE), sequence (O42275 24-633): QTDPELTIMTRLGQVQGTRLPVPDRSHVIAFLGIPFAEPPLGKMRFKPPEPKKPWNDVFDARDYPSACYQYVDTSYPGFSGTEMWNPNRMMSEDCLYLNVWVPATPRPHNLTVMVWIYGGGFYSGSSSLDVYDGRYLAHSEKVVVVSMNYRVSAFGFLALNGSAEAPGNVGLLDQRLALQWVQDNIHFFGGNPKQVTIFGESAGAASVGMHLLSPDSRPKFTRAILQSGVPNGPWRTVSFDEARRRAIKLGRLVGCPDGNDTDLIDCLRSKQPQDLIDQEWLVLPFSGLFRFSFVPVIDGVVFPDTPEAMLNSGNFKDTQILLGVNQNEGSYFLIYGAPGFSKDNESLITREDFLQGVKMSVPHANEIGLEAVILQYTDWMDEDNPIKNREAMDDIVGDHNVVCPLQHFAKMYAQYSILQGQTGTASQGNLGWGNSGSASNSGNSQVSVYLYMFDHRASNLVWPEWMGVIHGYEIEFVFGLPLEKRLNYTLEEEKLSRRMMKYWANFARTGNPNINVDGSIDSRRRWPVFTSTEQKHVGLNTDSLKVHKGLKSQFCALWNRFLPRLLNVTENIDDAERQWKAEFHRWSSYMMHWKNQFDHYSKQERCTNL

## CN(C)c1ccc(/C=C/C=C/C(=O)c2ccc(OCCOc3ccc(C(=O)/C=C/C=C/c4ccc(N(C)C)cc4)cc3)cc2)cc1 [ei]
[1]
  % LOX Inhb. @ 100 μM: 77%
  IC50: 62.5 µM
[2]
  % Inhb. of Liposomes LP @ 100 μM: 4%
[3]
  RA% 100 μM 20 min: No
  RA% 100 μM 60 min: no
[4]
  AAPH% @ 100 μM (anti-lipid peroxidation): 71%
[5]
  RM: 0.56
[6]
  ABTS•+ Inhb. % @ 100 μM: 98%

## CN(C)c1ccc(/C=C/C=C/C(=O)c2ccc(OCCCCCOc3ccc(C(=O)/C=C/C=C/c4ccc(N(C)C)cc4)cc3)cc2)cc1 [eiv, (2E,2′E,4E,4′E)-1,1′-((pentane-1,5-diylbis(oxy))bis(4,1-phenylene))bis(5-(4-(dimethylamino)phenyl)penta-2,4-dien-1-one)]
[1]
  % LOX Inhb. @ 100 μM: 23%
[2]
  % Inhb. of Liposomes LP @ 100 μM: 77%
[3]
  RA% 100 μM 20 min: No
  RA% 100 μM 60 min: no
[4]
  AAPH% @ 100 μM (anti-lipid peroxidation): 72%
[5]
  RM: 0.13
[6]
  ABTS•+ Inhb. % @ 100 μM: 73%

## O=C(/C=C/c1ccc(OCc2ccc(Br)cc2)cc1)c1ccc(O)cc1 [a1, (E)-3-(4-((4-bromobenzyl)oxy)phenyl)-1-(4-hydroxyphenyl) prop-2-en-1-one]
[7]
  % AChE Inhb. @ 100 μM: 7%
[8]
  ABTS•+ Inhb. % @ 100 μM: No
[9]
  1 μM Average (% pi) ± σ: 1 ± 0.6%
  10 μM Average (% pi) ± σ: 5 ± 2.8%
  20 μM Average (% pi) ± σ: 5.5 ± 0.71%
  50 μM Average (% pi) ± σ: 32 ± 4.9%
  100 μM Average (% pi) ± σ: 32 ± 4.9%
[10]
  RA% 100 μM 20 min: 1%
  RA% 100 μM 60 min: 6%
[11]
  RM: 0.34
[12]
  % LOX Inhb. @ 100 μM: 14%

## CN(C)c1ccc(/C=C/C=C/C(=O)c2ccc(OCCCCCCCOc3ccc(C(=O)/C=C/C=C/c4ccc(N(C)C)cc4)cc3)cc2)cc1 [evi, (2E,2′E,4E,4′E)-1,1′-((heptane-1,7-diylbis(oxy))bis(4,1-phenylene))bis(5-(4-(dimethylamino)phenyl)penta-2,4-dien-1-one)]
[1]
  % LOX Inhb. @ 100 μM: 65%
  IC50: 76 µM
[2]
  % Inhb. of Liposomes LP @ 100 μM: 64%
[3]
  RA% 100 μM 20 min: No
  RA% 100 μM 60 min: no
[4]
  AAPH% @ 100 μM (anti-lipid peroxidation): 64%
[6]
  ABTS•+ Inhb. % @ 100 μM: 79%

## O=C(/C=C/c1cccc2ccccc12)c1ccc(O)cc1 [a4, (E)-1-(4-hydroxyphenyl)-3-(naphthalen-1-yl) prop-2-en-1-one]
[7]
  % AChE Inhb. @ 100 μM: 25%
[8]
  ABTS•+ Inhb. % @ 100 μM: No
[9]
  1 μM Average (% pi) ± σ: 8.5 ± 2.1%
  10 μM Average (% pi) ± σ: 12 ± 4.2%
  20 μM Average (% pi) ± σ: 29.5 ± 0.6%
  50 μM Average (% pi) ± σ: 51 ± 9.9%
  100 μM Average (% pi) ± σ: 51 ± 9.9%
[10]
  RA% 100 μM 20 min: 7%
  RA% 100 μM 60 min: 3%
[11]
  RM: −0.26
[12]
  % LOX Inhb. @ 100 μM: 44%

## Cc1c(C)c2c(c(C)c1O)CCC(C)(C(=O)O)O2 (stereo not drawn) [Trolox, reference compound]
[2]
  % Inhb. of Liposomes LP @ 100 μM: 69%
[4]
  AAPH% @ 100 μM (anti-lipid peroxidation): 93%
[6]
  ABTS•+ Inhb. % @ 100 μM: 96%

## O=C(/C=C/C=C/c1ccccc1)c1ccc(OCCCOc2ccc(C(=O)/C=C/C=C/c3ccccc3)cc2)cc1 [c7, (2E,2′E,4E,4′E)-1,1′-((propane-1,3-diylbis(oxy))bis(4,1-phenylene))bis(5-phenylpenta-2,4-dien-1-one)]
[1]
  % LOX Inhb. @ 100 μM: 41%
[13]
  1 μM Average (% pi) ± σ: 22.5 ± 11.64%
  10 μM Average (% pi) ± σ: 28.73 ± 11.78%
  20 μM Average (% pi) ± σ: 25.4 ± 8.42%
  50 μM Average (% pi) ± σ: 28.84 ± 5.62%
  100 μM Average (% pi) ± σ: 28.84 ± 5.62%
[3]
  RA% 100 μM 20 min: No
  RA% 100 μM 60 min: no
[4]
  AAPH% @ 100 μM (anti-lipid peroxidation): 82%
[5]
  RM: −0.77
[6]
  ABTS•+ Inhb. % @ 100 μM: No

## O=C(/C=C/C(Br)=C\c1ccccc1)c1ccc(OCCCOc2ccc(C(=O)/C=C/C(Br)=C\c3ccccc3)cc2)cc1 [c9, (2E,2′E,4E,4′E)-1,1′-((propane-1,3-diylbis(oxy))bis(4,1-phenylene))bis(4-bromo-5-phenylpenta-2,4-dien-1-one)]
[1]
  % LOX Inhb. @ 100 μM: 24.5%
[13]
  1 μM Average (% pi) ± σ: 12.5 ± 10.31%
  10 μM Average (% pi) ± σ: 15.88 ± 6.31%
  20 μM Average (% pi) ± σ: 28.76 ± 2.74%
  50 μM Average (% pi) ± σ: 29.53 ± 6.87%
  100 μM Average (% pi) ± σ: 29.53 ± 6.87%
[3]
  RA% 100 μM 20 min: No
  RA% 100 μM 60 min: no
[4]
  AAPH% @ 100 μM (anti-lipid peroxidation): 32%
[5]
  RM: −0.86
[6]
  ABTS•+ Inhb. % @ 100 μM: No

## CC(/C=C/C(=O)c1ccc(OCCCOc2ccc(C(=O)/C=C/C(C)=C/c3ccccc3)cc2)cc1)=C\c1ccccc1 [c8, (2E,2′E,4E,4′E)-1,1′-((propane-1,3-diylbis(oxy))bis(4,1-phenylene))bis(4-methyl-5-phenylpenta-2,4-dien-1-one)]
[1]
  % LOX Inhb. @ 100 μM: 26.5%
[13]
  1 μM Average (% pi) ± σ: 35.72 ± 10.23%
  10 μM Average (% pi) ± σ: 29.05 ± 9.62%
  20 μM Average (% pi) ± σ: 35.69 ± 5.85%
  50 μM Average (% pi) ± σ: 38.7 ± 4.96%
  100 μM Average (% pi) ± σ: 38.7 ± 4.96%
[3]
  RA% 100 μM 20 min: No
  RA% 100 μM 60 min: no
[4]
  AAPH% @ 100 μM (anti-lipid peroxidation): 75%
[5]
  RM: −0.85
[6]
  ABTS•+ Inhb. % @ 100 μM: No

## CN(C)c1ccc(/C=C/C=C/C(=O)c2ccc(O)cc2)cc1 [a3, (2E,4E)-5-(4-(dimethylamino)phenyl)-1-(4-hydroxyphenyl) penta-2,4-dien-1-one]
[7]
  % AChE Inhb. @ 100 μM: 50%
[8]
  ABTS•+ Inhb. % @ 100 μM: 12%
[9]
  1 μM Average (% pi) ± σ: 14 ± 3.5%
  10 μM Average (% pi) ± σ: 15 ± 0.8%
  20 μM Average (% pi) ± σ: 19 ± 1.4%
  50 μM Average (% pi) ± σ: 14 ± 0.7%
  100 μM Average (% pi) ± σ: 14 ± 0.7%
[10]
  RA% 100 μM 20 min: 18%
  RA% 100 μM 60 min: 17%
[11]
  RM: −0.69
[12]
  % LOX Inhb. @ 100 μM: 56%
[12]; soybean LOX
  IC50: 100 µM

## Cc1ccc(/C=C/C(=O)c2ccc(O)cc2)o1 [a12, (E)-1-(4-hydroxyphenyl)-3-(5-methylfuran-2-yl) prop-2-en-1-one]
[1]
  % LOX Inhb. @ 100 μM: 2%
[13]
  1 μM Average (% pi) ± σ: 0.88 ± 0.31%
  10 μM Average (% pi) ± σ: 3.25± 2.11%
  20 μM Average (% pi) ± σ: 8.12 ± 0.32%
  50 μM Average (% pi) ± σ: 63.54 ± 6.16%
  100 μM Average (% pi) ± σ: 63.54 ± 6.16%
[3]
  RA% 100 μM 20 min: 24%
  RA% 100 μM 60 min: 9%
[4]
  AAPH% @ 100 μM (anti-lipid peroxidation): 45%
[5]
  RM: −0.81
[6]
  ABTS•+ Inhb. % @ 100 μM: 6%

## O=C(/C=C/c1cccc(Oc2ccccc2)c1)c1ccc(O)cc1 [a2, (E)-1-(4-hydroxyphenyl)-3-(3-phenoxyphenyl) prop-2-en-1-one]
[7]
  % AChE Inhb. @ 100 μM: 26%
[8]
  ABTS•+ Inhb. % @ 100 μM: No
[9]
  1 μM Average (% pi) ± σ: 1 ± 0.5%
  10 μM Average (% pi) ± σ: 3.5 ± 0.7%
  20 μM Average (% pi) ± σ: 27.5 ± 8.9%
  50 μM Average (% pi) ± σ: 63 ± 11.2%
  100 μM Average (% pi) ± σ: 63 ± 11.2%
[10]
  RA% 100 μM 20 min: 3%
  RA% 100 μM 60 min: 4%
[11]
  RM: 0.36
[12]
  % LOX Inhb. @ 100 μM: 10%
